From patent publication US9072751B2, “Na/K-ATPase ligand” (priority 2006, dated 2015)

Experiments:
[1] = test system: TGF-β, Smad 2/3, Smad 4, pSmad 2/3; assay: TGF-β, Smad 2/3, Smad 4, pSmad 2/3 expression in fibroblasts (Western blot); assay type: cell-based, rat; conditions: 24 hours, 1 and 10 nM
Excerpt: To further examine the molecular mechanisms by which cardiotonic steroids induce collagen production in fibroblasts, we examined the effects of MBG on TGF-β expression, as well as the expression of Smad 2/3, Smad 4, and pSmad 2/3. […] Next, we examined whether TGF-β induced collagen production and whether there was synergism between TGF-β and MBG. […] However, it is important to point out that we never completely serum starve the primary cultures, and because serum is always present, some TGF-β is always present.
The effect of 24 hours of MBG (1 and 10 nM) on TGF-β, Smad 2/3, Smad 4, and pSmad 2/3 expression determined by Western blot. b and c, effects of 24 hours of MBG (10 nM), TGFβ(5 ng/mL), and the TGF-β receptor antagonist SB431542 ([…] on procollagen-1 expression (Western blot) and radiolabeled proline incorporation, respectively also were carried out. SB431542 was added 2 hours before exposure to either TGFβ or MBG (total of 26-hour exposure). Each bar represents the mean.+−.SEM of 6 to 8 determinations. *P<0.05, **P<0.01 vs. control.

SYF cells = assay: Procollagen expression in SYF cells; assay type: cell-based; conditions: MBG 10 nM
Excerpt: (§1) To examine whether cardiotronic steroids induced collagen synthesis by signaling through the Na/K-ATPase, we performed the following studies. First, we used pharmacological antagonism at several steps in the Na/K-ATPase cascade. Specifically, we used pharmacological antagonism of Src activation with PP2, nonspecific tyrosine kinase inhibition with herbimycin, inhibition of EGFR transactivation with AG1478, and nonspecific antioxidant administration with N-acetyle cysteine. […] Next we performed studies in the SYF and SYF+ cells (details available in the online supplement).
(§2) The effects of PP2 (1 μmol/L), herbimycin (1 μmol/L), AG1478 (250 nM), and N-acetyl cysteine (2.5 mmol/L) on MBG (10 nM) stimulation of procollagen expression also were found. The PP2, herbimycin AG1478, and N-acetyl cysteine were administered from 2 hours before the addition of MBG and continued throughout the 24 hours of MBG incubation (total of 26 hours). Each bar represents the mean.+−.SEM of n=8 experiments. b, effects of PP2 (1 μmol/L) and N-acetyle cysteine (2.5 mmol/L) on MBG (10 nM)-stimulated proline incorporation into collagen. Again, the PP2 an N-acetyl cysteine were added 2 hours before exposure to MBG. Each bar represents the mean.+−.SEM of N=5 experiments. c, effects of MBG 10 nM on procollagen content in SYF and SYF+ cells. Representative Western blots are shown above quantitative data. […]

Sprague-Dawley rats = assay: Blood pressure, left ventricular hemodynamics (Millar catheter) and heart size 4 weeks after MBG infusion; assay type: in vivo
Procedure: Male, Sprague-Dawley rats were used for all of the studies. All of the animal experimentation described in the article was conducted in accordance with the National Institutes of Health Guide for the Care and use of Laboratory Animals using protocols approved by the Medical University of Ohio Institutional Animal Use and Care Committee.
Briefly, Sprague-Dawley rats weighing.apprxeq.250 g at the time of surgery were subjected to either sham surgery with no MBG infusion (Sham), sham surgery with placement of a minipump infusing MBG at 10 μg/kg per day (MBG), PNx, and PNx after immunization against MBG (PNx-IM). MBG of extremely high purity (>99%) was isolated from the venom of Bufa marinas by Kennedy et al. In addition to these maneuvers, a group of PNx animals was subjected to adrenalectomy as well (PNx-ADx).
(determined after extraction on a C-18 column using DELPHIA as described previously), aldosterone (determined with ELISA kit 10004377, Cayman Chemical) and cardiac immunohistochemistry (vida infra) were assessed 4 weeks after surgery.
In the current in vivo studies we observed that MBG levels were increased in PNx- and MBG-treated rats compared with sham-operated controls. […] Using the Millar pressure/volume sensor catheter rather than echocardiography in our previous report, we observed that PNx induced decreases in end systolic volume and end diastolic volume, as well as increased ejection fraction compared with sham-operated controls. The end systolic volume and end diastolic volume were greater, and the ejection factor values were lower in PNX-IM as compared with PNx. […] Using pressure volume loops generated during vena cava occlusions, we noted that the end diastolic pressure volume relationship (an inverse measurement of passive compliance) was increased in PNx- and MBG-treated animals compared with controls, whereas […] ha a lower end diastolic pressure volume relationship than PNx.

[2] = test system: isolated cardiac fibroblasts; assay: Collagen-1 mRNA by standardized RT-PCR in cardiac fibroblasts; assay type: cell-based, rat; conditions: 24 hours, 10 nM
Procedure: Standardized RT-PCR was used to measure gene expression, with GAPDH transcript used as the housekeeping gene, as reported previously.
To further examine the molecular basis of this cardiac fibrosis, isolated cardiac fibroblasts were subjected to increase doses of MBG (10^−10, 10^−9, and 10^−8 M). […] Using collagenase digestion, we observed that the vast majority of the proline incorporation was into collagen. Using standardized RT-PCR, we observed a doubling of mRNA for collagen-1 at 24 hours in response to 10 nM of MBG.
Representative Western blot for procollagen and quantitative densitometric data obtained in response to different doses of (a) MBG (all N=10), (b) MBG 10 nM contrasted with different doses of ouabain (0.1 to 100 nM) and digoxin (10 nM; all N=8). c, ouabain sensitive Rb uptake as a function of MBG and ouabain concentration (N=4 at each concentration for both MBG and ouabain; data expressed as fraction of control). d, relative proline incorporation in the supernatant and matrix, both will and without collagenase digestion (total). Each group (controls and different doses of MBG) contains N=7 replicants. The difference between the total and after collagenase digestion is reported as collagen. […] Bars on quantitative graphs represent the mean.+−.SEM. *P<0.05 and **P<0.01 vs control.

SYF+ cells = assay: Procollagen expression in SYF+ cells; assay type: cell-based; conditions: MBG 10 nM
Excerpt: as §1, §2

[3] = MBG infusion, 4 weeks, mean ± SEM

SMILES: C[C@]12CC[C@H](O)C[C@@]1(O)CC[C@@H]1[C@@H]2CC[C@]2(C)[C@@H](c3ccc(=O)oc3)C[C@H]3O[C@]132 [MBG, marinobufagenin]
- TGF-β, Smad 2/3, Smad 4, pSmad 2/3 expression in vitro [1]: did not observe significant changes
- Response of procollagen expression in SYF cells (SYF cells): essentially no response
- Ejection fraction (Sprague-Dawley rats; [3]): 68 ± 2 %
- End diastolic volume (Sprague-Dawley rats; [3]): 162 ± 14 µL
- End systolic volume (Sprague-Dawley rats; [3]): 60 ± 6 µL
- Heart rate (Tall cuff measurements) (Sprague-Dawley rats; [3]): 367 ± 9 bpm
- Heart weight/body weight ratio (Sprague-Dawley rats; [3]): 2.8 ± 0.1 g/kg
- Systolic blood pressure (Tall cuff measurements) (Sprague-Dawley rats; [3]): 136 ± 4 mm Hg
- EDPVRX1000 (Sprague-Dawley rats; end diastolic pressure volume relationship, MBG infusion, 4 weeks, mean ± SEM): 41 ± 6 mm Hg/μL
- τ (Sprague-Dawley rats; time constant of isovolumic relaxation, MBG infusion, 4 weeks, mean ± SEM): 11.3 ± 0.3 ms
- Ventricular myocyte cross-sectional area (Sprague-Dawley rats; trichrome images, MBG infusion vs sham): marked increases
- mRNA for collagen-1 [2]: doubling
- Upregulation of procollagen expression in SYF+ cells (SYF+ cells): very similar way as the primary cardiac fibroblast cultures
